# In ChEMBL document CHEMBL5352452, “Design, synthesis and pharmacological evaluation of β-carboline derivatives as potential antitumor agent via targeting autophagy” (Eur J Med Chem, 2023):
# Active and inactive are the calls of the source. No cut-off for these calls is given here.
# How the values were obtained:
# [1] = test system: HCT-116; assay: Induction of apoptosis in p53 knockout human HCT-116 cells assessed as increase in caspase 3 expression upto 5 uM incubated for 24 hrs by Western blot analysis; assay type: functional, cell-based
# [2] = test system: HCT-116; assay: Induction of apoptosis in human HCT-116 cells assessed as necrotic cells at 2 uM incubated for 24 hrs by annexin V FITC/propidium iodide staining based flow cytometry (reference value: 7.7%); assay type: functional
# [3] = test system: HCT-116; assay: Inhibition of colony formation in ATG5 knockout human HCT-116 cells upto 4 uM […] by crystal violet staining based analysis; assay type: functional, cell-based
# [4] = test system: ECa-109 cell line; assay: Antiproliferative activity against human Eca-109 cells assessed as inhibition of cell growth measured after 48 hrs by MTT assay; assay type: functional, cell-based; conditions: ECa-109, 48 h
# [5] = test system: HCT-116; assay: Induction of apoptosis in p53 knockout human HCT-116 cells assessed as increase in cleaved caspase 3 expression upto 5 uM incubated for 24 hrs by Western blot analysis; assay type: functional, cell-based
# [6] = test system: HCT-116; assay: Induction of autophagy in human HCT-116 cells assessed as increase in LC3-II expression upto 5 uM incubated for 24 hrs by Western blot analysis; assay type: functional, cell-based
# [7] = test system: HCT-116; assay: Induction of apoptosis in human HCT-116 cells assessed as viable cells at 2 uM incubated for 24 hrs by annexin V FITC/propidium iodide staining based flow cytometry (reference value: 83 %); assay type: functional; conditions: read-out: Activity
# [8] = test system: HCT-116; assay: Inhibition of colony formation in ATG7 knockout human HCT-116 cells upto 4 uM […] by crystal violet staining based analysis; assay type: functional, cell-based
# [9] = test system: HCT-116; assay: Induction of autophagy in human HCT-116 cells assessed as increase in p62 expression at 3 uM measured after 48 to 60 hrs by Western blot analysis; assay type: functional, cell-based; conditions: time 48-60 hrs
# [10] = test system: HCT-116; assay: Induction of apoptosis in human HCT-116 cells assessed as necrotic cells at 1 uM incubated for 24 hrs by annexin V FITC/propidium iodide staining based flow cytometry (reference value: 7.7%); assay type: functional
# [11] = test system: CT26; assay: Antitumor activity against […] CT26 cells xenografted in C57BL/6 mouse assessed as reduction in tumor volume at 45 mg/kg, ip administered once every two days measured after 8 days; assay type: functional, organism-based; conditions: time 8.0 day
# [12] = test system: HCT-116; assay: Downregulation of DNA repair gene in human HCT-116 cells at 2 uM incubated for 24 hrs by RNA sequencing analysis; assay type: functional, cell-based
# [13] = test system: HCT-116; assay: Inhibition of colony formation in human HCT-116 cells at 1 to 4 uM measured after 14 days by crystal violet staining based analysis; assay type: functional, cell-based; conditions: dose 1-4 µM, time 14.0 day
# [14] = test system: SK-OV-3; assay: Antiproliferative activity against human SK-OV-3 cells assessed as inhibition of cell growth measured after 48 hrs by MTT assay; assay type: functional, cell-based; conditions: SK-OV-3, 48 h
# [15] = test system: HCT-116; assay: Induction of apoptosis in human HCT-116 cells assessed as late apoptotic cells at 2 uM incubated for 24 hrs in presence of Z-VAD-FMK by annexin V FITC/propidium iodide staining based flow cytometry (reference value: 4.6 %); assay type: functional
# [16] = test system: HCT-116; assay: Induction of apoptosis in human HCT-116 cells assessed as early apoptotic cells at 1 uM incubated for 24 hrs in presence of Z-VAD-FMK by annexin V FITC/propidium iodide staining based flow cytometry (reference value: 6.3 %); assay type: functional
# [17] = test system: MCF7; assay: Antiproliferative activity against human MCF7 cells assessed as inhibition of cell growth measured after 48 hrs by MTT assay; assay type: functional, cell-based; conditions: MCF7, 48 h
# [18] = test system: HCT-116; assay: Upregulation of Kras signaling pathway in human HCT-116 cells at 2 uM incubated for 24 hrs by RNA sequencing analysis; assay type: functional, cell-based
# [19] = test system: HCT-116; assay: Induction of apoptosis in human HCT-116 cells assessed as viable cells at 1 uM incubated for 24 hrs in presence of Z-VAD-FMK by annexin V FITC/propidium iodide staining based flow cytometry (reference value: 86.2 %); assay type: functional; conditions: read-out: Activity
# [20] = test system: HCT-116; assay: Induction of morphological changes in human HCT-116 cells assessed as appearance of wrinkled cells at 2 to 6 uM measured after 24 hrs by microscopic analysis; assay type: functional, cell-based; conditions: dose 2-6 µM
# [21] = test system: HCT-116; assay: Induction of apoptosis in human HCT-116 cells assessed as late apoptotic cells at 1 uM incubated for 24 hrs by annexin V FITC/propidium iodide staining based flow cytometry (reference value: 4.6%); assay type: functional
# [22] = test system: HCT-116; assay: Induction of apoptosis in human HCT-116 cells assessed as late apoptotic cells at 1 uM incubated for 24 hrs in presence of Z-VAD-FMK by annexin V FITC/propidium iodide staining based flow cytometry (reference value: 4.6 %); assay type: functional
# [23] = test system: HCT-116; assay: Induction of morphological changes in human HCT-116 cells assessed as appearance of round cells at 2 to 6 uM measured after 24 hrs by microscopic analysis; assay type: functional, cell-based; conditions: dose 2-6 µM
# [24] = test system: HCT-116; assay: Induction of autophagy in ATG7 knockout human HCT-116 cells assessed as increase in LC3-II expression upto 4 uM measured after 24 hrs by Western blot analysis; assay type: functional, cell-based
# [25] = test system: HCT-116; assay: Induction of autophagy in ATG5 knockout human HCT-116 cells assessed as increase in LC3-II expression upto 4 uM measured after 24 hrs by Western blot analysis; assay type: functional, cell-based
# [26] = test system: HCT-116; assay: Induction of autophagy in human HCT-116 cells expressing assessed as LC3B-EGFP-mCherry at 2 to 4 uM incubated for 24 hrs by DAPI staining based confocal microscopic analysis; assay type: functional, cell-based; conditions: dose 2-4 µM
# [27] = test system: HCT-116; assay: Antiproliferative activity against ATG7 knockout human HCT-116 cells assessed as inhibition of cell growth measured after 24 hrs by CCK-8 assay; assay type: functional, cell-based; conditions: HCT-116, 24 h
# [28] = test system: BGC-823; assay: Antiproliferative activity against human BGC-823 cells assessed as inhibition of cell growth measured after 48 hrs by MTT assay; assay type: functional, cell-based; conditions: BGC-823, 48 h
# [29] = test system: HCT-116; assay: Induction of apoptosis in p53 knockout human HCT-116 cells assessed as increase in LC3-II expression upto 4 uM incubated for 24 hrs by Western blot analysis; assay type: functional, cell-based
# [30] = test system: HCT-116; assay: Induction of autophagy in human HCT-116 cells assessed as increase in LC3-II expression at 3 uM measured upto 36 hrs by Western blot analysis; assay type: functional, cell-based
# [31] = test system: HCT-116; assay: Induction of autophagy in human HCT-116 cells expressing ATG5-FLAG assessed as increase in LC3-II expression upto 4 uM measured after 24 hrs by Western blot analysis; assay type: functional, cell-based
# [32] = test system: HCT-116; assay: Antiproliferative activity against human HCT-116 cells expressing ATG5-FLAG assessed as inhibition of cell growth measured after 24 hrs by CCK-8 assay; assay type: functional, cell-based; conditions: HCT-116, 24 h
# [33] = test system: 786-0; assay: Antiproliferative activity against human 786-0 cells assessed as inhibition of cell growth measured after 48 hrs by MTT assay; assay type: functional, cell-based; conditions: 786-0, 48 h
# [34] = test system: HCT-116; assay: Antiproliferative activity against p53 knockout human HCT-116 cells assessed as inhibition of cell growth measured after 24 hrs by CCK-8 assay; assay type: functional, cell-based; conditions: HCT-116, 24 h
# [35] = test system: HCT-116; assay: Downregulation of mTORC1 signaling pathway in human HCT-116 cells at 2 uM incubated for 24 hrs by RNA sequencing analysis; assay type: functional, cell-based
# [36] = test system: HCT-116; assay: Induction of apoptosis in human HCT-116 cells assessed as early apoptotic cells at 2 uM incubated for 24 hrs by annexin V FITC/propidium iodide staining based flow cytometry (reference value: 4.7%); assay type: functional
compound,measurement,setting,value
CN1CCN(Cc2cc3c4ccccc4n(CCCc4ccccc4)c3c(CN3CCN(C)CC3)n2)CC1,Activity,[1],inactive
same,Activity,[2],4.9%
same,inhibition,[3],inactive
same,IC50,[4],8.62 µM
same,Activity,[5],inactive
same,Activity,[6],Active
same,viability at 2 µM,[7],82.1%
same,inhibition,[8],inactive
same,Activity,[9],inactive
same,Activity,[10],6%
same,Activity,[11],Active
same,Activity,[12],Active
same,inhibition,[13],Active
same,IC50,[14],10.6 µM
same,Activity,[15],4.6%
same,Activity,[16],6.7%
same,IC50,[17],13.5 µM
same,Activity,[18],Active
same,viability at 1 µM,[19],84.8%
same,Activity,[20],Active
same,Activity,[21],5.6%
same,Activity,[22],4.9%
same,Activity,[23],Active
same,Activity,[24],inactive
same,Activity,[25],inactive
same,Activity,[26],Active
same,IC50,[27],7.89 µM
same,IC50,[28],24.8 µM
same,Activity,[29],Active
same,Activity,[30],Active
same,Activity,[31],Active
same,IC50,[32],4.57 µM
same,IC50,[33],2.71 µM
same,IC50,[34],4.71 µM
same,Activity,[35],Active
same,Activity,[36],6.2%
